Data: doi:10.1101/2022.04.05.487101v2 (biorxiv, 2022)

Biological target: SOX2 (Homo sapiens, UniProt P48431)
Test: competitive EMSA
Type: binding
Conditions: 300 uM compound; pH 7.5; competes with DNA; off-target control

Chain of SOX2 (P48431 whole entry): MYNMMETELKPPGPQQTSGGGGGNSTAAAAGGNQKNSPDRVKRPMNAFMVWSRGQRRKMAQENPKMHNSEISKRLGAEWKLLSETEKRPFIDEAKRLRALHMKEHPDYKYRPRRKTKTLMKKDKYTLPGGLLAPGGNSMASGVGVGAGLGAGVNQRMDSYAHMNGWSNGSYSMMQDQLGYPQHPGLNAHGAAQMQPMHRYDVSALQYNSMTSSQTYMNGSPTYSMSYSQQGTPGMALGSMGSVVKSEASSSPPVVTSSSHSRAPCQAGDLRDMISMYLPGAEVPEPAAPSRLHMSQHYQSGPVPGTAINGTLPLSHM

In the case of `Cc1cc2nc(-c3cccc(NC(=O)c4ccc(C)c([N+](=O)[O-])c4)c3)oc2cc1C` [A, Compound A], the “competitive EMSA (loss of shifted biotin-DNA probe)” value is reported as “SOX2 was competed by Compound A only”.
